“Also recorded” adds a separate entry of the source.
Columns and labels:
[1] = system: three-week old E. faecalis biofilm; test: Biofilm disruption assay on infected dentin samples (Example 2); format: cell-based, Enterococcus faecalis; conditions: immersion for 5 minutes
Description: Unidentified intact human teeth were collected, stored in 0.1% thymol solution at 4° C., and used within 6 months after obtaining local Institutional Review Board approval (IRB #1409251353). A standardized radicular dentin sample (4×4×1 mm^3) was obtained from each root using a slow diamond saw (IsoMet, Buehler, Lake Bluff, Ill.) under continuous distilled water irrigation. The pulpal side of each specimen was wet-finished with silicon carbide abrasive papers (500-2400 grit, Struers, Cleveland, Ohio). The polished samples were then sonicated in deionized water for 3 minutes, washed with sterile water, wrapped individually with moist cotton pellets, placed in Whirl-pak bags (Sigma-Aldrich, St Louis, Mo.), gas sterilized with ethylene oxide, and stored at 4° C. until used. E. faecalis (ATCC 29212) was grown initially on anaerobic blood agar plates (CDC, BioMerieux, Durham, N.C.). […] Dentin samples were placed individually in separate wells of a 96-sterile well plate (Fisherbrand, Fischer Scientific) with the pulpal side facing upwards. Then, 10 μl of an overnight E. faecalis culture (10^6 CFU/mL) dispersed in 190 μL of fresh BHI-YE growth media was added to each dentin specimen. […] The CFUs/mL were quantified using an automated colony counter (Synbiosis, Inc., Frederick, Md.). Summary statistics were calculated for the log-transformed data from each group. […]

[2] = system: stem cells from apical papillae and dental pulp stem cells; conditions: 2% CHX; recent in vitro studies; cited from earlier work

Row | SMILES | antibiofilm effect (log CFU/mL) ([1]; 2% CHX) | effects on survival and attachment of stem cells from apical and dental pulp [2] | antibiofilm effect (log CFU/mL) ([1]; 1.5% NaOCl)
1 | N=C(NCCCCCCNC(=N)NC(=N)Nc1ccc(Cl)cc1)NC(=N)Nc1ccc(Cl)cc1.O=C(O)[C@H](O)[C@@H](O)[C@H](O)[C@H](O)CO.O=C(O)[C@H](O)[C@@H](O)[C@H](O)[C@H](O)CO [CHX] | significant reduction in E. faecalis biofilm; also recorded: nearly eliminate the bacterial biofilm | highly unfavorable effects | –
2 | OCl [NaOCl, sodium hypochlorite] | – | – | significant reduction and complete eradication of E. faecalis biofilm

From US20180263860A1, “DELIVERY SYSTEMS FOR APPLICATION OF ANTIBIOTIC GEL FORMULATION” (Indiana University Research and Technology Corporation, priority 2015, published 2018)
